Reference: article PMC6060375 (Drug Delivery, 2018)

How the values were obtained:
[1] = Tissue distribution of TA in tumor-bearing nude mice (GC-MS/MS); assay type: in vivo; conditions: BALB/c nude, mouse, spleen, intravenous; TA measured after treatment of nude mice with mPEG2K-SA-TA; dose group not stated; read-out: tissue exposure to TA in spleen
Protocol: In order to better support the anti-tumor evaluation and following histological assay, the harvested tissues were prepared as abovementioned method to monitor the amount of TA by GC–MS/MS in these tissues, including heart, liver, spleen, lung, kidney and tumor.

[2] = Pharmacokinetics of TA in rats after i.v. administration; assay type: in vivo, Sprague–Dawley (SD) rats; conditions: both sexes, Sprague-Dawley, rat, plasma, iv, total TA, 3 mg/kg TA equivalent
Protocol: Sprague–Dawley (SD) rats (male and female, 300 ± 30 g) were purchased from SIPPR/BK Experimental Animal Co., Ltd (Shanghai, China). All animals were kept in a humanized environment, with the temperature maintained at 20 ± 2 °C and relative humidity at 50 ± 10%. All the animal procedures were performed following the approved protocol. SD rats were randomly divided into different groups (n = 4 in each group). Rats from different groups were intravenously (i.v.) administrated with TA solution, PEGylated TA solution mPEG2K-SA-TA, respectively. At the designated time points, the blood samples were collected into polyethylene tubes containing EDTA at 0, 0.083, 0.167, 0.5, 0.75, 1, 2, 4, 8, 12, 24, 36 and 48 h and then centrifuged at 12,000 rpm for 5 min to obtain plasma. The plasma samples were stored at −80 °C till analysis. The harvested plasma samples were prepared by sample direct saponification or extraction and analyzed by GC–MS/MS (Wang et al., [2015]). […]
The pharmacokinetic parameters were calculated by a noncompartmental analysis using WinNonlin (Version 6.4; Pharsight, Mountain View, CA, USA). […] The systemic exposure to TA (area under the plasma concentration versus time profile from the dosing time to the terminal sampling time, AUC0−t) was calculated by trapezoidal rule. […]

`CCCCCCCCCCCCCCCCCCCCCCCCCCCCCCO` [TA, Triacontanol] gave a concentration at 21 days [1] of 4170 ng/g, a half-life ([2]; read-out: elimination half-life (t1/2) (converted)) of 2.57 h and an MRT ([2]; read-out: mean residence time) of 2.95 h.
